Data on 10 compounds can be found in patent US20220041588A1, “SUBSTITUTED IMIDAZO[1,2-A]PYRIDINE AND [1,2,4]TRIAZOLO[1,5-A]PYRIDINE COMPOUNDS AS RET KINASE INHIBITORS” (FOCHON PHARMACEUTICALS, LTD., priority 2018, published 2022).

The subject of one assay is TT (RET C634W) cells. Kind of assay: Cell proliferation assay (MTS), TT cells. It is filed as cell-based. To be noted: 72 h incubation, MTS readout. The method, boiled down: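 TT cells (F12K, 10% FBS) and LC-2/ad cells (HamF12:RPMI1640 1:1, 10% FBS, 2 mM glutamine) were seeded at 5000/well for 24 h. They were then treated 72 h at 37 °C with nine final concentrations from 10000 to 1.5 nM. MTS was read after 2 h, SDS-stopped, at 490 nm (650 nm reference), and IC50 calculated.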

In assay [1] the test system is LC-2/ad (CCDCl6-RET) cells. Kind of assay: Cell proliferation assay (MTS), LC-2/ad cells. The conditions noted are these: LC-2/ad cells (CCDCl6-RET), 72 h incubation, MTS readout. It is filed as cell-based. As to the method:
MTS testing kit was purchased from Promega. The RPMI-1640, F12, F12K, Fetal bovine serum and Penicillin-Streptomycin were purchased from BI. Glutamine and Dimethyl sulfoxide (DMSO) were purchased from Sigma. TT cells were cultured in F12K supplemented with 10% FBS and LC-2/ad cells were cultured in HamF12: RPMI1640 (1:1) supplemented with 10% FBS and 2 mM Glutamine.
To investigate whether a compound is able to inhibit the activity of RET fusion and/or mutation in cells, a mechanism-based assay using TT (RET C634W) and LC-2/ad (CCDCl6-RET) cell lines was developed. In this assay, the inhibition of RET fusion and/or mutation was reflected by the inhibition of cell proliferation of TT and LC-2/ad cells. Cells were plated into 96-well plates at the optimized cell density (TT: 5000 cells/well; LC-2/ad: 5000 cells/well). Plates were incubated at 37° C., with 5% CO2 for 24 h. Compounds were serially diluted and added to the plates with the final concentrations as 10000, 3333.3, 1111.1, […], 123.5, 41.2, 13.7, 4.6 and 1.5 nM. Plates were incubated at 37° C., with 5% CO2 for 72 h. An aliquot of 20 μL MTS/100 μL medium mixture solution were added to each well and the plates were incubated for exactly 2 h. The reaction was stopped by adding 25 μL 10% SDS to each well. The absorbance was measured by a microplate reader at 490 nm and 650 nm (reference wavelength). IC50 was calculated using GraphPad Prism 5.0.

As usually defined, the IC50 is the concentration that inhibits the measured activity by half. `Cn1cc(-c2cc(-c3ccc(N4CCN(Cc5ccccn5)CC4)nc3)n3c(C#N)cnc3c2)cn1` [Example 52, 7-(1-methyl-1H-pyrazol-4-yl)-5-(6-(4-(pyridin-2-ylmethyl)piperazin-1-yl)pyridin-3-yl)imidazo[1,2-a]pyridine-3-carbonitrile]: the half-inhibitory concentration (IC50) in the assay with TT (RET C634W) cells (Homo sapiens, TT, 72 h) was 24 nM; in assay [1] (Homo sapiens, LC-2-ad, 72 h), 42 nM.

As to `COc1ccc(CN2C3CC2CN(c2ccc(-c4cc(OCC5(O)CC5)cc5ncc(C#N)n45)cn2)C3)cn1` [Example 57A, 7-((1-Hydroxycyclopropyl)methoxy)-5-(6-(6-((6-methoxypyridin-3-yl)methyl)-3,6-diazabicyclo[3.1.1]heptan-3-yl)pyridin-3-yl)imidazo[1,2-a]pyridine-3-carbonitrile], the IC50 amounted to 33 nM in the assay with TT (RET C634W) cells and 81 nM in assay [1] (Homo sapiens, LC-2-ad, 72 h).

As to `COc1ccc(CN2C3CC2CN(c2ccc(-c4cc(OCC5(O)CC5)cc5ncc(C#N)n45)cn2)C3)cn1` [Example 57B, 7-((1-Hydroxycyclopropyl)methoxy)-5-(6-(6-((6-methoxypyridin-3-yl)methyl)-3,6-diazabicyclo[3.1.1]heptan-3-yl)pyridin-3-yl)imidazo[1,2-a]pyridine-3-carbonitrile], the IC50 came out at 127 nM with TT (RET C634W) cells and 115 nM in assay [1].

`COc1ccc(CN2C3CC2CN(c2ccc(-c4cc(OCCC(O)C(F)(F)F)cc5ncc(C#N)n45)cn2)C3)cn1` (centres unmarked) [Example 59, 5-(6-(6-((6-Methoxypyridin-3-yl)methyl)-3,6-diazabicyclo[3.1.1]heptan-3-yl)pyridin-3-yl)-7-(4,4,4-trifluoro-3-hydroxybutoxy)imidazo[1,2-a]pyridine-3-carbonitrile]: the IC50 was 126 nM in the assay on TT (RET C634W) cells (Homo sapiens, TT, 72 h) and 64 nM in assay [1] (Homo sapiens, LC-2-ad, 72 h).

`COc1ccc(OC2CCN(c3ccc(-c4cc(OCC(C)(C)O)cc5ncc(C#N)n45)cn3)CC2)cn1` [Example 60, 7-(2-Hydroxy-2-methylpropoxy)-5-(6-(4-((6-methoxypyridin-3-yl)oxy)piperidin-1-yl)pyridin-3-yl)imidazo[1,2-a]pyridine-3-carbonitrile]: the half-maximal inhibitory concentration (IC50) came to 3 nM with TT (RET C634W) cells (Homo sapiens, TT, 72 h) and 9 nM in assay [1] (Homo sapiens, LC-2-ad, 72 h).

As to `CC(C)(O)COc1cc(-c2ccc(N3CCC(Oc4ccccn4)CC3)nc2)n2c(C#N)cnc2c1` [Example 64, 7-(2-hydroxy-2-methylpropoxy)-5-(6-(4-(pyridin-2-yloxy)piperidin-1-yl)pyridin-3-yl)imidazo[1,2-a]pyridine-3-carbonitrile], the half-inhibitory concentration (IC50) was determined as 87 nM in the assay with TT (RET C634W) cells (Homo sapiens, TT, 72 h) and 28 nM in assay [1] (Homo sapiens, LC-2-ad, 72 h).

As to `COc1ccc(OC2CCN(c3ccc(-c4cc(OCC(C)(C)O)cc5ncc(C#N)n45)cn3)CC2)nn1` [Example 65, 7-(2-hydroxy-2-methylpropoxy)-5-(6-(4-((6-methoxypyridazin-3-yl)oxy)piperidin-1-yl)pyridin-3-yl)imidazo[1,2-a]pyridine-3-carbonitrile], the IC50 with TT (RET C634W) cells (Homo sapiens, TT, 72 h) stood at 38 nM; in assay [1] (Homo sapiens, LC-2-ad, 72 h), 34 nM.

For `CC(C)(O)COc1cc(-c2ccc(N3CCC(O)(Cc4ccccc4)CC3)nc2)n2c(C#N)cnc2c1` [Example 66, 5-(6-(4-benzyl-4-hydroxypiperidin-1-yl)pyridin-3-yl)-7-(2-hydroxy-2-methylpro-poxy)imidazo[1,2-a]pyridine-3-carbonitrile], the IC50 in the assay with TT (RET C634W) cells (Homo sapiens, TT, 72 h) was found to be 117 nM; in assay [1] (Homo sapiens, LC-2-ad, 72 h) it was 55 nM.

For the compound `COc1ccc(OC2CCN(c3ccc(-c4cc(OCC5(O)CC5)cc5ncc(C#N)n45)cn3)CC2)cn1` [Example 68, 7-((1-hydroxycyclopropyl)methoxy)-5-(6-(4-((6-methoxypyridin-3-yl)oxy)piperidin-1-yl)pyridin-3-yl)imidazo[1,2-a]pyridine-3-carbonitrile], the concentration for half-maximal inhibition (IC50) came to 5 nM in the assay on TT (RET C634W) cells (Homo sapiens, TT, 72 h) and 10 nM in assay [1] (Homo sapiens, LC-2-ad, 72 h).

`COc1ccc(OC2CCN(c3ccc(-c4cc(OCC(O)C(F)(F)F)cc5ncc(C#N)n45)cn3)CC2)cn1` (centres unmarked) [Example 69, 5-(6-(4-((6-methoxypyridin-3-yl)oxy)pi-peridin-1-yl)pyridin-3-yl)-7-(3,3,3-trifluoro-2-hydroxypropoxy)imidazo[1,2-a]pyri-dine-3-carbonitrile]: the concentration for half-maximal inhibition (IC50) in the assay with TT (RET C634W) cells (Homo sapiens, TT, 72 h) is 57 nM; in assay [1] (Homo sapiens, LC-2-ad, 72 h), 49 nM.
